Measured values: publication PMC5090206, “Fluselenamyl: A Novel Benzoselenazole Derivative for PET Detection of Amyloid Plaques (Aβ) in Alzheimer’s Disease” (Scientific Reports, 2016)

Legend:
[1] = Human serum stability by radio-HPLC; assay type: in vitro ADME; details: 37 °C
Source text: For biomedical imaging applications, the signal is a net function of target/background ratio. In PET imaging, this signal results from detection of γ-photons arising from annihilation events of positrons and imaging resolution is also dependent upon energy associated with a given radionuclide. Resultant radioactive metabolites could also contribute to nonspecific binding or compete with the parental tracer for binding to the target. Therefore, it is also important to investigate metabolic stability of the radiotracer to explicitly confirm whether or not biochemical targeting profiles of a given tracer are driven by a parental molecular imaging probe. […]
Binding assays were performed using previously described methods.11 Briefly, a fixed concentration (0.25 µM/well) of Aβ1–42 fibrils was incubated for 1 h at 37 °C with increasing concentrations of [18F]-9 (0.1 nM-15 nM) in 30 mM Tris-HCl pH 7.4, 0.1% BSA in a reaction volume of 150 µl. […] The exact hot:cold ([18F]-9 : 5) ratio was measured in each experiment by counting an aliquot of a sample (2 µl) of the radioligand preparation in a scintillation counter. Binding of [18F]-9 to human brain homogenates was assessed by incubating samples of insoluble fraction (1.25 µg insoluble protein/well) from AD subjects, with increasing concentrations of [18F]-9 (0.1nM-18 nM) for 1 h at 37 °C. […]

Aβ plaques = Aβ plaques (Homo sapiens, UniProt P05067); test: Histological staining of human AD brain tissue sections
Sequence of Aβ plaques (P05067 672-711 limits assumed): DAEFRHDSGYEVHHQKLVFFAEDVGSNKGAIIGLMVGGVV
Procedure: To further assess ability of the 5 to label Aβ plaques in human brain, staining experiments were also performed with postmortem tissues from clinically-characterized AD patients[35][36] As a positive control, a highly specific anti-Aβ antibody (10D5, Eli Lilly, Indianapolis, IN) was used to ascertain the presence of Aβ plaques (Fig. 4A), using well-established procedures for assessment of Aβ plaques in postmortem brain[37]. […] Noticeably, 5 also indicated proficient and distinct labeling of plaque and leptomeningeal vessels (cerebral amyloid angiopathy; CAA) (Fig. 4B). […] This high specificity of 5 for Aβ could be attributed to presence of a benzoselenazole ring within Fluselenamyl. Overall, the ability and sensitivity of 5 to detect diffuse plaques and specificity for AD could represent an important advancement to enable PET imaging of mildly demented individuals, prior to onset of symptoms.
Scientific Reports Version of August 4, 2016
µm) were cut in the coronal plane on a freezing sliding microtome and stored at -20°C. 7,8 Tissue was stained as free-floating sections. Prior to staining, tissue sections were permeabilized with PBS-Tritron-X-100 (0.25%) for 30 minutes, and then blocked with 1% non-fat dry milk in PBS-Ttiton-X-100 for 60 minutes.
Hippocampus tissue sections of APP+/-/PS1+/- and age-matched control BL/6 (WT, SI Figure 3) were incubated with fluorescent molecule 5 (100 nM dissolved in 1% ethanol in PBS) for 60 minutes, and washed 3-times with PBS-Triton-X-100.9 Thereafter, tissue sections were incubated with mouse-anti-Aβ (mHJ3.4) 7 that was directly conjugated to Alexa 568 for 90 minutes and washed 3-times with PBS-Triton-X-100.
Tissue sections were mounted onto SuperFrost Plus slides, dried overnight at room temperature, and then sealed with Fluoromount G (Southern Biotech, Birmingham, AL). […]
other neurodegenerative diseases (SI, Figure 4A & 4B). Sections were visualized, processed, and analyzed using a Pascal confocal microscope. […]

| Compound | presence of parental tracer (single radio-peak) in human serum [1] | presence of parental tracer (single radio-peak) in human serum ([1]; listed as 18F-9) [h] | labeling of Aβ plaques in frontal lobe tissue sections (Aβ plaques; 2 μM, person with AD) | staining of diffuse plaques (Aβ plaques; AD frontal lobe sections) |
| --- | --- | --- | --- | --- |
| CN(C)c1ncc(/C=C\c2nc3cc(OCC[18F])ccc3[se]2)cn1 [[^18F]-9] | up to 3 h | 3 | – | – |
| CN(C)c1ncc(/C=C\c2nc3cc(OCCF)ccc3[se]2)cn1 [compound 5, (Z)-5-(2-(5-(2-fluoroethoxy)benzo[d][1,3]selenazol-2-yl)vinyl)-N,N-dimethylpyrimidin-2-amine] | – | – | strikingly distinct labeling of Aβ plaques | labeling of numerous diffuse Aβ plaques |
